Measured values reported in patent US8940861B2, “Variants of ancestral uricases and uses thereof” (Georgia Tech Research Corporation, priority 2010, dated 2015).

Legend:
[1] = system: pig-baboon chimeric uricase (amino acids 1-225 of SEQ ID NO:10 and amino acids 226-304 of SEQ ID NO:11); experiment: Uricolytic activity, A293 decrease, steady-state kinetics; type: biochemical; details: 0.1M Na2HPO4/Na2H2PO4, pH 7.4; 24° C.
[2] = target: T1, pig uricase, SEQ ID NO:10 (Sus scrofa, UniProt P16164); details: 0.1M Na2HPO4/Na2H2PO4, pH 7.4; 24° C.
T1 sequence (P16164 1-304): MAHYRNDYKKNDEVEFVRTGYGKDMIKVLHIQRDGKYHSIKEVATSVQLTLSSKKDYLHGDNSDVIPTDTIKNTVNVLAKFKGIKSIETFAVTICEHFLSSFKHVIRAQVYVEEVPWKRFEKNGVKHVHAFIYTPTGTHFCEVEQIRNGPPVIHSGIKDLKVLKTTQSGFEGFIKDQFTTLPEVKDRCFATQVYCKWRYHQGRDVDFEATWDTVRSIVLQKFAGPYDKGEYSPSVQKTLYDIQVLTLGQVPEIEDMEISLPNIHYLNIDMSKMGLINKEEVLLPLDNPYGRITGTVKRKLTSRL

[3] = system: ancestral mammalian uricase Node 27 (four identical subunits), SEQ ID NO:4; experiment: Uricolytic activity, A293 decrease, steady-state kinetics; type: biochemical; details: phosphate buffered saline, pH 7.4; 24° C.
Excerpt: (§1) Uricases were designed using Ancestral Sequence Reconstruction (ASR) to reconstruct and resurrect ancestral forms of human uricase based upon an analysis of modern mammalian uricases. See generally Gaucher, “Ancestral sequence reconstruction as a tool to understand natural history and guide synthetic biology: Realizing (and extending) the vision of Zukerkandl and Pauling” in ANCESTRAL SEQUENCE RECONSTRUCTION, ed. David A. Liberles, pp. 20-33 (Oxford University Press, 2007). Ancestral uricase sequences corresponding to various nodes of the phylogenetic tree were inferred by analyzing modern mammalian uricase sequences (FIG. 1), and uricases were designed based upon those inferred sequences. Uricase subunits of the present invention may therefore comprise an amino acid sequence corresponding to the inferred amino acid sequence at one of the nodes highlighted in FIG. 1 (e.g., Node 18, Node 19, Node 26, Node 27, Node 30, Node 31 or Node 32) or to a variant of the inferred amino acid sequence at one of the nodes highlighted in FIG. 1.

[4] = system: ancestral mammalian uricase Node 26 (four identical subunits), SEQ ID NO:3; experiment: as above; type: biochemical; details: phosphate buffered saline, pH 7.4
Excerpt: as §1

[5] = system: ancestral mammalian uricase Node 19 (four identical subunits), SEQ ID NO:2; experiment: as above; type: biochemical; details: 0.1M Na2HPO4/Na2H2PO4, pH 7.4; 24° C.
Excerpt: as §1

- Km [1]: 2.2 µM
- Vmax [1]: 2.8 × 10^−3 μmol uric acid/min
- kcat [1]: 4.78 s⁻¹
- Vmax [2]: 2.4 × 10^−3 μmol uric acid/min
- Km [3]: 5.3 µM
- Vmax [3]: 8.1 × 10^−4 μmol uric acid/min
- kcat [3]: 0.417 s⁻¹
- Km ([4]; 24° C.): 4.9 µM
- Vmax ([4]; 24° C.): 1.4 × 10^−3 μmol uric acid/min
- kcat ([4]; 24° C.): 1.25 s⁻¹
- Km ([4]; 37° C.): 4.9 µM
- Vmax ([4]; 37° C.): 4.3 × 10^−3 μmol uric acid/min
- kcat ([4]; 37° C.): 3.75 s⁻¹
- Km [5]: 4 µM
- Vmax [5]: 4.3 × 10^−3 μmol uric acid/min
- kcat [5]: 5.42 s⁻¹
Structure (SMILES): O=c1[nH]c(=O)c2[nH]c(=O)[nH]c2[nH]1 [uric acid]
